Measurements taken from patent EP0255256A2, “Antibiotics produced by actinomadura parvosata” (SMITHKLINE BECKMAN CORPORATION, priority 1986, dated 1988).
≈ marks a conversion by molar mass, not a printed value. Like-named read-outs stand apart in the source and are kept apart here.

Experiments:
Test in all cases: MIC, standard microtiter assay
Format in all cases: cell-based
Staph. epidermidis 2256 = settings: Staphylococcus epidermidis, 2256, read-out: MIC in μg/ml, Staph. epidermidis 2256
Method: (§1) The in vitro minimal inhibitory concentration (MIC) of the AAJ-271 complex and its factors, and vancomycin were determined for a number of microorganisms using the standard microtite'r assay procedures. The results are shown in the following tables, each of which represents a different production run of the complex.
(§2) The in vitro minimal inhibitory concentration (MIC) and the in vitro minimal bactericidal concentration (MBC) of the AAJ-271 aglycones, pseudo-aglycone and vancomycin were determined for a number of microorganisms using the standard microtiter assay procedures.

[1] = test system: Staph. saprophyticus 2657; settings: Staphylococcus saprophyticus, 2657, read-out: MIC in μg/ml, Staph. saprophyticus 2657
Method: as §1, §2

Strep. faecalis 657 = settings: Enterococcus faecalis, 657, read-out: MIC in μg/ml, Strep. faecalis 657
Method: as §1, §2

Staph. aureus HH127 = settings: Staphylococcus aureus, HH127, read-out: MIC in μg/ml, Staph. aureus HH127
Method: as §1, §2

Staph. aureus 675 = settings: Staphylococcus aureus, 675, read-out: MIC in μg/ml, Staph. aureus 675
Method: as §1, §2

[2] = test system: Strep. pyogenes (Group A)
Method: as §1, §2

Staph. aureus 910 = test system: Staph. aureus 910
Method: as §1, §2

Staph. aureus 209P = settings: Staphylococcus aureus, 209P, read-out: MIC in μg/ml, Staph. aureus 209P
Method: as §1, §2

Staph. aureus 2620 = settings: Staphylococcus aureus, 2620, read-out: MIC in μg/ml, Staph. aureus 2620
Method: as §1, §2

Staph. epidermidis 2265 = settings: Staphylococcus epidermidis, 2265, read-out: MIC in μg/ml, Staph. epidermidis 2265
Method: as §1, §2

Staph. epidermidis 2588 = settings: Staphylococcus epidermidis, 2588, read-out: MIC in μg/ml, Staph. epidermidis 2588
Method: as §1, §2

Strep. faecalis 34358 = settings: Enterococcus faecalis, 34358, read-out: MIC in μg/ml, Strep. faecalis 34358
Method: as §1, §2

Structure (SMILES): CN[C@H](CC(C)C)C(=O)N[C@H]1C(=O)N[C@@H](CC(N)=O)C(=O)N[C@H]2C(=O)N[C@H]3C(=O)N[C@H](C(=O)N[C@H](C(=O)O)c4cc(O)cc(O)c4-c4cc3ccc4O)[C@H](O)c3ccc(c(Cl)c3)Oc3cc2cc(c3O[C@@H]2O[C@H](CO)[C@@H](O)[C@H](O)[C@H]2O[C@H]2C[C@](C)(N)[C@H](O)[C@H](C)O2)Oc2ccc(cc2Cl)[C@H]1O [Vancomycin, vancomycin]
- MIC (Staph. epidermidis 2256; Table I): 1.6 µg/mL (≈ 1.1 µM)
- MIC (Staph. epidermidis 2256; Table VIII): 3.1 µg/mL (≈ 2.14 µM)
- MIC ([1]; Table I): 1.6 µg/mL (≈ 1.1 µM)
- MIC ([1]; Table VIII): 3.1 µg/mL (≈ 2.14 µM)
- MIC (Strep. faecalis 657; Table I): 1.6 µg/mL (≈ 1.1 µM)
- MIC (Strep. faecalis 657; Table II): 3.1 µg/mL (≈ 2.14 µM)
- MIC (Strep. faecalis 657; Table IX): 3.1 µg/mL (≈ 2.14 µM)
- MIC (Strep. faecalis 657; Table VIII): 3.1 µg/mL (≈ 2.14 µM)
- MIC (Staph. aureus HH127; Table I): 1.6 µg/mL (≈ 1.1 µM)
- MIC (Staph. aureus HH127; Table II): 3.1 µg/mL (≈ 2.14 µM)
- MIC (Staph. aureus HH127; Table IX): 3.1 µg/mL (≈ 2.14 µM)
- MIC (Staph. aureus HH127; Table VIII): 1.6 µg/mL (≈ 1.1 µM)
- MIC (Staph. aureus 675; Table I): 1.6 µg/mL (≈ 1.1 µM)
- MIC (Staph. aureus 675; Table II): 3.1 µg/mL (≈ 2.14 µM)
- MIC (Staph. aureus 675; Table IX): 3.1 µg/mL (≈ 2.14 µM)
- MIC (Staph. aureus 675; Table VIII): 3.1 µg/mL (≈ 2.14 µM)
- MIC ([2]; Strep. pyogenes (Group A), Table VIII): 0.8 µg/mL (≈ 0.552 µM)
- MIC ([2]; Streptococcus pyogenes, read-out: MIC in μg/ml): 0.8 µg/mL (≈ 0.552 µM)
- MIC (Staph. aureus 910; Staph. aureus 910, Table VIII): 1.6 µg/mL (≈ 1.1 µM)
- MIC (Staph. aureus 910; Staphylococcus aureus, 910, read-out: MIC in μg/ml): 1.6 µg/mL (≈ 1.1 µM)
- MIC (Staph. aureus 209P; Table I): 1.6 µg/mL (≈ 1.1 µM)
- MIC (Staph. aureus 209P; Table VIII): 0.8 µg/mL (≈ 0.552 µM)
- MIC (Staph. aureus 2620; Table I): 1.6 µg/mL (≈ 1.1 µM)
- MIC (Staph. aureus 2620; Table II): 3.1 µg/mL (≈ 2.14 µM)
- MIC (Staph. aureus 2620; Table IX): 3.1 µg/mL (≈ 2.14 µM)
- MIC (Staph. aureus 2620; Table VIII): 1.6 µg/mL (≈ 1.1 µM)
- MIC (Staph. epidermidis 2265; Table I): 1.6 µg/mL (≈ 1.1 µM)
- MIC (Staph. epidermidis 2265; Table II): 6.3 µg/mL (≈ 4.35 µM)
- MIC (Staph. epidermidis 2265; Table IX): 6.3 µg/mL (≈ 4.35 µM)
- MIC (Staph. epidermidis 2265; Table VIII): 3.1 µg/mL (≈ 2.14 µM)
- MIC (Staph. epidermidis 2588; Table I): 1.6 µg/mL (≈ 1.1 µM)
- MIC (Staph. epidermidis 2588; Table VIII): 6.3 µg/mL (≈ 4.35 µM)
- MIC (Strep. faecalis 34358; Table I): 1.6 µg/mL (≈ 1.1 µM)
- MIC (Strep. faecalis 34358; Table II): 6.3 µg/mL (≈ 4.35 µM)
- MIC (Strep. faecalis 34358; Table IX): 6.3 µg/mL (≈ 4.35 µM)
- MIC (Strep. faecalis 34358; Table VIII): 3.1 µg/mL (≈ 2.14 µM)
